Assay results taken from patent US20110288176A1, “[…] ACID-CONTAINING COMPOSITION FOR PREVENTION OR TREATMENT OF […]-RELATED DISEASES AND METHOD FOR PREVENTION OR TREATMENT OF […]-RELATED DISEASES USING THE SAME” (priority 2008, published 2011).

Target: T1, Transglutaminase 2 (Cavia cutleri, UniProt P08587)
T1 construct: purchased Sigma-Aldrich T5398
T1 sequence (P08587 1-690): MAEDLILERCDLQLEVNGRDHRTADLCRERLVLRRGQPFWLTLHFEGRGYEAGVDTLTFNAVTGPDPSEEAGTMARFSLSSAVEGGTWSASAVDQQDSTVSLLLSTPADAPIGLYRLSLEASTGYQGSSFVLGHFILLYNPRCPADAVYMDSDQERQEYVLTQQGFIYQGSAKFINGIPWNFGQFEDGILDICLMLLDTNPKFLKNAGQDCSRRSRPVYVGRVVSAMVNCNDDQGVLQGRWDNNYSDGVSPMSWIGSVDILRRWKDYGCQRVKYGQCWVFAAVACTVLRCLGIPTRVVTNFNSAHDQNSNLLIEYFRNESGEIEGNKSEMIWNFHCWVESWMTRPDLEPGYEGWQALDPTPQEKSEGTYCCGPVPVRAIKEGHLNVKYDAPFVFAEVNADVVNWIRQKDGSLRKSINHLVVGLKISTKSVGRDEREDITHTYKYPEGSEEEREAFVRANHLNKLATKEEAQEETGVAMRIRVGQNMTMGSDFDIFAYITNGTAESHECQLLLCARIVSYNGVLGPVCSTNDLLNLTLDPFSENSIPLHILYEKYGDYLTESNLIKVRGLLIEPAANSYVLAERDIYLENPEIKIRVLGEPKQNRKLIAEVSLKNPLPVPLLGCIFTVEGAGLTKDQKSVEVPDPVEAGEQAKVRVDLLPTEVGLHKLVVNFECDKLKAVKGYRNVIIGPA
Assay: In vitro assay for inhibition of transglutaminase activity ([1,4-14C]putrescine incorporation into succinylated casein)
Format: biochemical
Settings: for activity of transglutaminase, Mean: mean of three assays
Method: Succinylated casein was purchased from Calbiochem (Cat. No. 573464), and 1 g of the powder was dissolved in 50 ml of a reaction buffer solution containing 5 mM DTT (0.1 M Tris-acetate (pH 8.0), 10 mM CaCl2, 0.15 M NaCl, 1.0 mM EDTA). This solution was stored in a deep freezer for further use. [1,4-^14C] Putrescine dihydrochloride was purchased from GE Healthcare (Cat. No. CFA301), and the stock solution was diluted with distilled water to yield a radiological dose of 5 μCi/ml. Transglutaminase 2 was purchased from Sigma-Aldrich (Cat. No. T5398), and diluted with distilled water to yield a final concentration of 1 unit/ml.
450 μl of succinylated casein solution and 50 μl of [1,4-^14C] putrescine dihydrochloride solution were mixed together to prepare a substrate solution. […] 500 μl of the substrate solution β and 100 μl of sample solution were mixed well, and the mixture was incubated at 37° C. for 2 hrs, before termination with 4.5 ml of cold (4° C.) 7.5% TCA. The final solution was stored at 4° C. for 1 hr. The TCA-protein precipitates were filtered through a GF/glass fiber filter, washed with 25 ml of cold 5% TCA, and dried.

[1] = 5 μM ethacrynic acid, relative to DMSO control (=1.0000)
[2] = 10 μM ethacrynic acid, relative to DMSO control (=1.0000)
[3] = 25 μM ethacrynic acid, relative to DMSO control (=1.0000)
[4] = 50 μM ethacrynic acid, relative to DMSO control (=1.0000)

C=C(CC)C(=O)c1ccc(OCC(=O)O)c(Cl)c1Cl [ethacrynic acid, 2-[2,3-dichloro-4-(2-methylidenebuanoyl)phenoxy]acetic acid]
activity of transglutaminase, Mean [1]: 0.4796 | activity of transglutaminase, Assay 1 (5 μM ethacrynic acid, radioactivity of cross-linked protein relative to DMSO control (=1.0000)): 0.5667 | activity of transglutaminase, Assay 2 [1]: 0.4572 | activity of transglutaminase, Assay 3 [1]: 0.4148 | activity of transglutaminase, Mean [2]: 0.3752 | activity of transglutaminase, Assay 1 [2]: 0.4319 | activity of transglutaminase, Assay 2 [2]: 0.3654 | activity of transglutaminase, Assay 3 [2]: 0.3281 | activity of transglutaminase, Mean [3]: 0.1935 | activity of transglutaminase, Assay 1 [3]: 0.2337 | activity of transglutaminase, Assay 2 [3]: 0.1812 | activity of transglutaminase, Assay 3 [3]: 0.1656 | activity of transglutaminase, Mean [4]: 0.0736 | activity of transglutaminase, Assay 1 [4]: 0.0763 | activity of transglutaminase, Assay 2 [4]: 0.0799 | activity of transglutaminase, Assay 3 [4]: 0.0645 | inhibition of transglutaminase activity (in words) (FIG. 1): inhibited in an ethacrynic acid concentration-dependent manner
